Measurements taken from patent US7741493B2, “Heterocyclic compounds as P2X7 ion channel blockers” (Aventis Pharmaceuticals Inc., priority 2003, dated 2010).
pIC50: −log10 of the molar value. Counter-ions that a name gives are not always drawn.

The compounds below were run against T1, P2X7 (Homo sapiens, UniProt Q99572) (assay: YO-PRO-1 dye uptake assay in U373 cells stably expressing P2X7). Conditions: IC50 (nM), dye uptake through P2X7, U373 cells, 300 μM BzATP, 5 μM YO-PRO-1, test compounds 30 nM to 3 μM.
T1 sequence (Q99572 1-595): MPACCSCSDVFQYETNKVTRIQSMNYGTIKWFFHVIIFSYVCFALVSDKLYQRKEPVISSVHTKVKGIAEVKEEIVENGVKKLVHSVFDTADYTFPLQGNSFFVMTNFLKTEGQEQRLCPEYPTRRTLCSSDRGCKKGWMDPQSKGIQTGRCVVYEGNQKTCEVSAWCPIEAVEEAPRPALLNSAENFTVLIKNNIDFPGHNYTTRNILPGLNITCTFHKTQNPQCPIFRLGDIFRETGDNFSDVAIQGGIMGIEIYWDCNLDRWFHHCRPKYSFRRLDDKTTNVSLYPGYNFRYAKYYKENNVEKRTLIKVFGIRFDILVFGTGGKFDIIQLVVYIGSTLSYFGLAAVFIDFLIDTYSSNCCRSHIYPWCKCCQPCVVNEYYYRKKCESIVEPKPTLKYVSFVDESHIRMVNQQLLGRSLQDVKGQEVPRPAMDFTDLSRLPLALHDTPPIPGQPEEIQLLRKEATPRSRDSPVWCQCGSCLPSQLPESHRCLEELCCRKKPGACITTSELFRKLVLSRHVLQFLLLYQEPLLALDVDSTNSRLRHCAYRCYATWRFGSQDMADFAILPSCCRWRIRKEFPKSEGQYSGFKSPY
Type: cell-based
Design: The complete open reading frame of human P2X7 was amplified from Incyte clone 148057; expressed in transfected cells
In short: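 U373 cells stably expressing human P2X7 preincubated 20 min at 37° C. with compound (30 nM to 3 μM) in Mg/Ca-free HBSS. YO-PRO-1 (5 μM final) and BzATP (300 μM final) then added for 1.5 h at 37° C.; dye-uptake fluorescence compared with compound-free control.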

Row | Structure (SMILES) | IC50 [nM]
1 | c1ccc(CCCCC2=N[C@H](c3ccccc3)[C@H](c3ccccc3)N2)cc1 [2-[4-phenyl-butyl]-cis-4,5-diphenyl-4,5-dihydro-1H-imidazole trifluoroacetate] | 610
2 | Cc1ccccc1CC1=N[C@H](c2ccccc2)[C@H](c2ccccc2)N1 [cis-4,5-diphenyl-2-(2-methylbenzyl)-4,5-dihydro-1H-imidazole] | 321

Same assay, conditions: dye uptake through P2X7, U373 cells, 300 μM BzATP, 5 μM YO-PRO-1, test compounds 30 nM to 3 μM; read-out: IC50

Row | pIC50 | Structure (SMILES)
3 | 6.11 | c1ccc(CCOCC2=N[C@@H](c3ccccc3)[C@@H](c3ccccc3)N2)cc1 [cis-4,5-diphenyl-2-[(2-phenethyloxy)methyl]-4,5-dihydro-1H-imidazole]
4 | 6.49 | Brc1ccccc1CC1=N[C@@H](c2ccccc2)[C@@H](c2ccccc2)N1 [cis-4,5-diphenyl-2-(2-bromobenzyl)-4,5-dihydro-1H-imidazole]
5 | 6.20 | Clc1cccc(CSC2=N[C@@H](c3ccccc3)[C@@H](c3ccccc3)N2)c1 [cis-4,5-diphenyl-2-(3-chlorobenzyl)thio-4,5-dihydro-1H-imidazole]
6 | 6.24 | Fc1ccccc1CC1=N[C@H](c2ccccc2)[C@H](c2ccccc2)N1 [cis-4,5-diphenyl-2-(2-fluorobenzyl)-4,5-dihydro-1H-imidazole]
7 | 7.05 | Fc1cccc(CNC2=N[C@@H](c3ccccc3)[C@@H](c3ccccc3)N2)c1 [(cis-4,5-Diphenyl-4,5-dihydro-1H-imidazol-2-yl)-(3-fluorobenzyl)amine hydrochloride]
8 | 6.42 | Cc1cccc(CNC2=N[C@@H](c3ccccc3F)[C@@H](c3ccccc3F)N2)c1 [[cis-4,5-bis-(2-Fluorophenyl)-4,5-dihydro-1H-imidazol-2-yl]-(3-methylbenzyl)amine hydrochloride]
9 | 6.28 | C[C@@]1(c2ccccc2)N=C(CSCc2ccccc2)N[C@@H]1c1ccccc1 (relative stereo) [cis-4,5-diphenyl-4-methyl-2-[(benzylsulfanyl)methyl]-4,5-dihydro-1H-imidazole]
10 | 6.05 | Fc1ccc(CNC2=N[C@@H](c3ccccc3Br)[C@@H](c3ccccc3Br)N2)cc1 [[cis-4,5-bis-(2-Bromophenyl)-4,5-dihydro-1H-imidazol-2-yl]-(4-fluorobenzyl)amine hydrochloride]
11 | 6.26 | c1ccc(COc2ccc(CSC3=N[C@@H](c4ccccc4)[C@@H](c4ccccc4)N3)cc2OCc2ccccc2)cc1 [2-[(3,4-Dibenzyloxybenzyl)thio]-cis-4,5-diphenyl-4,5-dihydro-1H-imidazole hydrochloride]
12 | 6.40 | Fc1ccc(OCC2=N[C@@H](c3ccccc3)[C@@H](c3ccccc3)N2)cc1 [2-[(4-Fluorophenoxy)methyl]-cis-4,5-diphenyl-4,5-dihydro-1H-imidazole trifluoroacetate]
13 | 6.50 | Fc1cccc(OCC2=N[C@@H](c3cccc(F)c3)[C@@H](c3cccc(F)c3)N2)c1 [2-[(3-Fluorophenoxy)methyl]-cis-4,5-bis-(3-fluorophenyl)-4,5-dihydro-1H-imidazole]
14 | 6.19 | Ic1ccccc1CSC1=N[C@@H](c2ccccc2)[C@@H](c2ccccc2)N1 [cis-4,5-diphenyl-2-(2-iodobenzyl)thio-4,5-dihydro-1H-imidazole]
15 | 7.66 | C[C@@]1(c2ccccc2)N=C(CCc2ccccc2)N[C@@H]1c1ccccc1 (relative stereo) [cis-4,5-diphenyl-4-methyl-2-(2-phenylethyl)-4,5-dihydro-1H-imidazole]
16 | 6.66 | Fc1ccc(CC2=N[C@@H](c3cccc(F)c3)[C@@H](c3cccc(F)c3)N2)cc1 [2-(4-Fluorobenzyl)-cis-4,5-bis-(3-fluorophenyl)-4,5-dihydro-1H-imidazole trifluoroacetate]
17 | 6.27 | c1ccc(CCCC2=N[C@H](c3ccccc3)[C@H](c3ccccc3)N2)cc1 [2-[3-phenyl-propyl]-cis-4,5-diphenyl-4,5-dihydro-1H-imidazole trifluoroacetate]
18 | 6.46 | Fc1ccc(OCC2=N[C@@H](c3cccc(F)c3)[C@@H](c3cccc(F)c3)N2)cc1 [2-[(4-Fluorophenoxy)methyl]-cis-4,5-bis-(3-fluorophenyl)-4,5-dihydro-1H-imidazole]
19 | 6.22 | c1ccc([C@H]2NC(COC3CCCCCC3)=N[C@H]2c2ccccc2)cc1 [2-[(Cycloheptyloxy)methyl]-cis-4,5-diphenyl-4,5-dihydro-1H-imidazole trifluoroacetate]
20 | 7.20 | C[C@@]1(c2ccccc2)N=C(NCc2ccc(F)cc2)N[C@@H]1c1ccccc1 (relative stereo) [(cis-4,5-Diphenyl-4-methyl-4,5-dihydro-1H-imidazol-2-yl)-(4-fluorobenzyl)amine hydrochloride]
21 | 6.85 | Fc1cccc([C@H]2NC(CCc3ccccc3Cl)=N[C@H]2c2cccc(F)c2)c1 [2-[2-(2-Chlorophenyl)ethyl]-cis-4,5-bis-(3-fluorophenyl)-4,5-dihydro-1H-imidazole]
22 | 7.19 | Fc1ccc(CNC2=N[C@@H](c3ccccc3)[C@@H](c3ccccc3)N2)cc1F [cis-4,5-diphenyl-2-[(3,4-difluorobenzyl)amino]-4,5-dihydro-1H-imidazole]

Row | pIC50 | Structure (SMILES)
23 | 6.33 | Clc1ccc(CNC2=N[C@@H](c3ccccc3)[C@@H](c3ccccc3)N2)cc1 [cis-4,5-diphenyl-2-(4-chlorobenzyl)amino-4,5-dihydro-1H-imidazole]
24 | 6.49 | c1ccc(C(CC2=N[C@@H](c3ccccc3)[C@@H](c3ccccc3)N2)c2ccccc2)cc1 [2-[2,2-diphenylethyl]-cis-4,5-diphenyl-4,5-dihydro-1H-imidazole trifluoroacetate]
25 | 7.62 | Fc1ccc(CC2=N[C@@H](c3ccccc3)[C@@H](c3ccccc3)N2)cc1F [2-(3,4-Difluorobenzyl)-cis-4,5-diphenyl-4,5-dihydro-1H-imidazole trifluoroacetate]
26 | 6.39 | Clc1ccc([C@H]2NC(NCc3ccccc3)=N[C@H]2c2ccc(Cl)cc2)cc1 [[cis-4,5-bis-(4-Chlorophenyl)-4,5-dihydro-1H-imidazol-2-yl]-benzylamine hydrochloride]
27 | 6.52 | Fc1cccc([C@H]2NC(CCc3ccccc3F)=N[C@H]2c2cccc(F)c2)c1 [2-[2-(2-Fluorophenyl)ethyl]-cis-4,5-bis-(3-fluorophenyl)-4,5-dihydro-1H-imidazole trifluoroacetate]
28 | 6.38 | Cc1cccc(COCC2=N[C@@H](c3ccccc3)[C@@H](c3ccccc3)N2)c1 [2-[(3-Methylbenzyloxy)methyl]-cis-4,5-diphenyl-4,5-dihydro-1H-imidazole hydrochloride]
29 | 6.60 | c1ccc(CCC2=N[C@@H](c3ccccc3)[C@@H](c3cccnc3)N2)cc1 (relative stereo) [ditrifluoroacetate]
30 | 6.79 | Fc1ccccc1CCC1=N[C@@H](c2ccccc2)[C@@H](c2ccccc2)N1 [2-[2-(2-Fluorophenyl)ethyl]-cis-4,5-diphenyl-4,5-dihydro-1H-imidazole trifluoroacetate]
31 | 6.23 | Clc1ccccc1CNC1=N[C@@H](c2ccccc2)[C@@H](c2ccccc2)N1 [cis-4,5-diphenyl-2-(2-chlorobenzyl)amino-4,5-dihydro-1H-imidazole]
32 | 6.48 | Fc1ccc(CCNC2=N[C@@H](c3ccccc3)[C@@H](c3ccccc3)N2)cc1 [cis-4,5-diphenyl-2-[2-(4-fluorophenyl)ethylamino]-4,5-dihydro-1H-imidazole]
33 | 6.56 | Fc1ccc([C@H]2NC(CCc3ccccc3)=N[C@H]2c2ccc(F)cc2)cc1 [cis-4,5-bis(4-fluorophenyl)-2-(2-phenylethyl)-4,5-dihydro-1H-imidazole]
34 | 6.85 | Fc1c(Cl)cccc1CC1=N[C@@H](c2ccccc2)[C@@H](c2ccccc2)N1 [trifluoroacetate]
35 | 6.62 | Fc1cccc(CSC2=N[C@@H](c3ccccc3)[C@@H](c3ccccc3)N2)c1 [cis-4,5-diphenyl-2-(3-fluorobenzyl)thio-4,5-dihydro-1H-imidazole]
36 | 6.50 | Cc1ccc(F)cc1CC1=N[C@@H](c2ccccc2)[C@@H](c2ccccc2)N1 [trifluoroacetate]
37 | 6.30 | Brc1ccccc1CNC1=N[C@@H](c2ccccc2)[C@@H](c2ccccc2)N1 [cis-4,5-diphenyl-2-(2-bromobenzyl)amino-4,5-dihydro-1H-imidazole]
38 | 6.57 | Clc1ccc(CC2=N[C@@H](c3ccccc3)[C@@H](c3ccccc3)N2)cc1 [cis-4,5-diphenyl-2-(4-chlorobenzyl)-4,5-dihydro-1H-imidazole]
39 | 6.49 | c1ccc(COCC2=N[C@@H](c3ccccc3)[C@@H](c3ccccc3)N2)cc1 [cis-4,5-diphenyl-2-benzyloxymethyl-4,5-dihydro-1H-imidazole]
40 | 6.08 | Fc1cccc(Cl)c1CC1=N[C@@H](c2ccccc2)[C@@H](c2ccccc2)N1 [trifluoroacetate]
41 | 6.28 | Brc1ccccc1CSC1=N[C@@H](c2ccccc2)[C@@H](c2ccccc2)N1 [cis-4,5-diphenyl-2-(2-bromobenzyl)thio-4,5-dihydro-1H-imidazole]
